According to ChEMBL document CHEMBL3860110, “First Structure-Activity Relationship of 17β-Hydroxysteroid Dehydrogenase Type 14 Nonsteroidal Inhibitors and Crystal Structures in Complex with the Enzyme” (J Med Chem, 2016):

Key:
[1] = Dissociation constant, pKa of the compound at OH/C-ring; type: physicochemical
[2] = target: T1, 17-beta-hydroxysteroid dehydrogenase 14 (Homo sapiens) (UniProt Q9BPX1); experiment: Inhibition of N-terminal 6His-tagged human HSD17B14 expressed in Escherichia coli BL21 (DE3) pLysS at 22.2 uM using E2 substrate and NAD+ incubated for 2 hrs using purified enzyme by fluorimetric assay
T1 sequence (whole entry): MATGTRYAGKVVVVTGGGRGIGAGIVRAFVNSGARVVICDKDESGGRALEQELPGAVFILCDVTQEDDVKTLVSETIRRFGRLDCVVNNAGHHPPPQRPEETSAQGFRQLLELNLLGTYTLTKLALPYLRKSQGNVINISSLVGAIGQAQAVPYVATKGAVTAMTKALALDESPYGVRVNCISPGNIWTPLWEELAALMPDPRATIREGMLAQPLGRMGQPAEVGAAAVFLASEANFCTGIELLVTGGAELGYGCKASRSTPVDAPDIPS

[3] = target: T2, 17-beta-hydroxysteroid dehydrogenase type 2 (Homo sapiens, UniProt P37059); experiment: Inhibition of purified human placental microsomal 17beta-HSD2 using [3H]-E2 substrate and NAD+ by HPLC based radioactive […] assay
T2 sequence (P37059 whole entry): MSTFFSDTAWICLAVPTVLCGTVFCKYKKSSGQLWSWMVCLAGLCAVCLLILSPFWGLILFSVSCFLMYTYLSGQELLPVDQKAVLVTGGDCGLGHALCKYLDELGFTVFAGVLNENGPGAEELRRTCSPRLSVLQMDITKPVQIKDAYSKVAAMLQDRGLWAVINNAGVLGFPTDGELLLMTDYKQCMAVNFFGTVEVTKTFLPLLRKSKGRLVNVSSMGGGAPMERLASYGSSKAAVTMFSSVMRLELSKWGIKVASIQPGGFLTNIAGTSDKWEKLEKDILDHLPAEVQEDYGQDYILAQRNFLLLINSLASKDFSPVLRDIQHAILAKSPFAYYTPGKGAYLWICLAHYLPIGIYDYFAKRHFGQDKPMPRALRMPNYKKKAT

Compound: O=C(c1cccc(O)c1)c1cccc(-c2ccc(O)c(F)c2)n1
- pKa [1]: 8.8

Compound: COc1ccc(-c2ccc(C(=O)c3ccc(F)c(OC)c3)nc2)cc1F
- inhibition [2]: 57%

Compound: O=C(c1ccc(F)c(O)c1)c1cccc(-c2ccc(O)c(F)c2)n1
- pKa [1]: 7.8

Compound: Cc1cc(-c2ccc(C(=O)c3ccc(F)c(O)c3)cc2)ccc1O
- IC50 [3]: 40 nM
